The record followed here is patent US20130261077A1 (priority 2012, published 2013).

In assay [1] the target is T1, FimH-CRD (Escherichia coli, UniProt P08191).
T1 construct: The first 177 amino acids of the FimH protein; thrombin tag (printed as 'fusion protein with thrombin') (cleaved yes); made in house; host or cells: bacteria (pET21b plasmid)
As to the kind of experiment: Competitive binding assay by fluorescence polarization, assay 1 (compounds prepared by manual serial dilution). The essentials: (§1)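 Compounds at 0.4 nM–75 μM final (12 points, 3-fold steps, duplicate) compete with a 5 nM Alexa 647 mannoside probe for 60 nM FimH-CRD; 5 h room-temperature incubation in pH 7.0 Tris buffer with 2.5% DMSO, FP read-out, Kd from fitted curves. Assay 1 uses manual dilution, assay 2 robot-made frozen/thawed plates.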
In general terms: Fluorescence polarisation rises when a labelled molecule tumbles more slowly, as on binding a larger partner.

Assay [2] concerns the target T1, FimH-CRD. As to the kind of experiment: Competitive binding assay by fluorescence polarization, assay 2 (compounds prepared by robotics, plates frozen and thawed). A digest of the protocol: as §1

T1 sequence (P08191 22-177): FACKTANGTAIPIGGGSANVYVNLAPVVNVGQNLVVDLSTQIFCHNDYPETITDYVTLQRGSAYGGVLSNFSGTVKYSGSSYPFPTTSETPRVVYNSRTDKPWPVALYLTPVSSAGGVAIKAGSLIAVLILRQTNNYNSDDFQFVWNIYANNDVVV

Broadly, the IC50 is the concentration that gives 50% inhibition. A high value points to weaker potency in that assay. By Kd is commonly meant the concentration at which binding is half-saturated. A high value points to a looser complex. The compound `OC[C@H]1O[C@H](c2cccc(-c3cc4ccccc4s3)c2)[C@@H](O)[C@@H](O)[C@@H]1O` [Compound 12, (2R,3S,4R,5S,6R)-2-[3-(benzothiophen-2-yl)phenyl]-6-(hydroxymethyl)tetrahydropyran-3,4,5-triol] registered an IC50 at FimH-CRD [1] of 67 nM. Also, the Kd turned out to be 9.2 ± 4.4 nM on FimH-CRD [1] and 11.7 ± 6.1 nM at FimH-CRD [2].

On FimH-CRD [1], `OC[C@H]1O[C@H](c2cc(O)ccc2Cl)[C@@H](O)[C@@H](O)[C@@H]1O` [Compound 68, (2R,3S,4R,5S,6R)-2-(2-chloro-5-hydroxyphenyl)-6-(hydroxymethyl)tetrahydro-2H-pyran-3,4,5-triol] returned a concentration for half-maximal inhibition (IC50) of 22 nM and a Kd of 22.1 ± 10.1 nM. In addition, binding at FimH-CRD [2] was characterised by a dissociation constant (Kd) of 35 ± 21.2 nM.

The compound `OC[C@H]1O[C@H](c2cccc(-c3cncnc3)c2)[C@@H](O)[C@@H](O)[C@@H]1O` [Compound 10, (2R,3S,4R,5S,6R)-2-(hydroxymethyl)-6-(3-pyrimidin-5-ylphenyl)tetrahydropyran-3,4,5-triol] gave a half-maximal inhibitory concentration (IC50) at FimH-CRD [1] of 99 nM. For the same compound, the Kd at FimH-CRD [1] was 13.4 ± 6.6 nM; on FimH-CRD [2] it was 10.1 ± 0.6 nM.

Regarding `OC[C@H]1O[C@H](c2cccc(Br)c2)[C@@H](O)[C@@H](O)[C@@H]1O` [Intermediate C, (2R,3S,4R,5S,6R)-2-(3-bromophenyl)-6-(hydroxymethyl)tetrahydro-2H-pyran-3,4,5-triol], the Kd was determined as 24 ± 5 nM at FimH-CRD [1] and 27 nM at FimH-CRD [2].

Regarding `COC(=O)c1cc(C(=O)OC)cc(-c2cccc([C@H]3O[C@H](CO)[C@@H](O)[C@H](O)[C@@H]3O)c2)c1` [Compound 62, Dimethyl 3′-((2R,3S,4R,5S,6R)-3,4,5-trihydroxy-6-(hydroxymethyl)tetrahydro-2H-pyran-2-yl)-[1,1′-biphenyl]-3,5-dicarboxylate], the results for the Kd on FimH-CRD [1] and on FimH-CRD [2] were 5.5 ± 0.4 nM and 7.6 ± 2 nM, respectively.

Take `N#Cc1ccc(-c2cccc([C@H]3O[C@H](CO)[C@@H](O)[C@H](O)[C@@H]3O)c2)cc1` [Compound 22, 3′-((2R,3S,4R,5S,6R)-3,4,5-trihydroxy-6-(hydroxymethyl)tetrahydro-2H-pyran-2-yl)-[1,1′-biphenyl]-4-carbonitrile]: on FimH-CRD [1], the IC50 came out at 49 nM and the Kd was determined as 6.6 ± 0.8 nM. Besides, the affinity on FimH-CRD [2], expressed as Kd, was 14.2 ± 11.1 nM.

At FimH-CRD [1], `Cc1nnc(-c2ccc(Oc3cccc([C@H]4O[C@H](CO)[C@@H](O)[C@H](O)[C@@H]4O)c3)cc2)o1` [Compound 60, (2R,3S,4R,5S,6R)-2-(hydroxymethyl)-6-[3-[4-(5-methyl-1,3,4-oxadiazol-2-yl)phenoxy]phenyl]tetrahydropyran-3,4,5-triol] gave an IC50 of 31 nM. For the same compound, the Kd came out at 8.7 ± 2.1 nM on FimH-CRD [1] and 10.7 ± 5.3 nM at FimH-CRD [2].

At FimH-CRD [1], `COc1cccc([C@H]2O[C@H](CO)[C@@H](O)[C@H](O)[C@@H]2O)c1` [Compound 44, (2R,3S,4R,5S,6R)-2-(hydroxymethyl)-6-(3-methoxyphenyl)tetrahydropyran-3,4,5-triol] returned an IC50 of 156 nM and an equilibrium dissociation constant (Kd) of 41.8 ± 11.6 nM. The affinity at FimH-CRD [2], expressed as Kd, was 50.4 ± 10.1 nM.

As to `Cc1nnc(-c2ccc(-c3cccc([C@H]4O[C@H](CO)[C@@H](O)[C@H](O)[C@@H]4O)c3)cc2)o1` [Compound 48, (2R,3S,4R,5S,6R)-2-(hydroxymethyl)-6-[3-[4-(5-methyl-1,3,4-oxadiazol-2-yl)phenyl]phenyl]tetrahydropyran-3,4,5-triol], on FimH-CRD [1], the IC50 was 34 nM and the Kd was below 5 nM. Further, the dissociation constant Kd on FimH-CRD [2] was determined as 8.5 ± 1.3 nM.

At FimH-CRD [1], `COC(=O)c1cc(Oc2ccc([C@H]3O[C@H](CO)[C@@H](O)[C@H](O)[C@@H]3O)cc2)cc(C(=O)OC)c1` [Compound 53, dimethyl 5-(4-((2R,3S,4R,5S,6R)-3,4,5-trihydroxy-6-(hydroxymethyl)tetrahydro-2H-pyran-2-yl)phenoxy)isophthalate] returned an IC50 of 25 nM and a Kd below 5 nM. For the same compound, the Kd at FimH-CRD [2] stood at 15.7 ± 10.2 nM.

As for `COC(=O)COc1cccc([C@H]2O[C@H](CO)[C@@H](O)[C@H](O[C@H]3O[C@H](CO)[C@@H](O)[C@H](O)[C@@H]3O)[C@@H]2O)c1` [Compound 286, Methyl 2-[3-[(2R,3R,4R,5R,6R)-3,5-dihydroxy-6-(hydroxymethyl)-4-[(2R,3S,4S,5S,6R)-3,4,5-trihydroxy-6-(hydroxymethyl)tetrahydropyran-2-yl]oxy-tetrahydropyran-2-yl]phenoxy]acetate], the IC50 at FimH-CRD [1] stood at 63 nM. Besides, the Kd on FimH-CRD [1] came to 17.4 ± 4.8 nM; at FimH-CRD [2] it was 35.1 ± 16.7 nM.

At FimH-CRD [1], `Cn1cnc2ccc(-c3cccc([C@H]4O[C@H](CO)[C@@H](O)[C@H](O)[C@@H]4O)c3)cc21` [Compound 4, (2R,3S,4R,5S,6R)-2-(hydroxymethyl)-6-[3-(3-methylbenzimidazol-5-yl)phenyl]tetrahydropyran-3,4,5-triol] came in with a 50% inhibitory concentration (IC50) of 19 nM. Besides, the Kd at FimH-CRD [1] amounted to 5.1 ± 0.1 nM; on FimH-CRD [2], 13.6 ± 6.1 nM.

`CNC(=O)c1cc(Oc2cccc([C@H]3O[C@H](CO)[C@@H](O)[C@H](O)[C@@H]3O)c2)cc(C(=O)NC)c1` [Compound 64, N1,N3-dimethyl-5-(3-((2R,3S,4R,5S,6R)-3,4,5-trihydroxy-6-(hydroxymethyl)tetrahydro-2H-pyran-2-yl)phenoxy)isophthalamide]: on FimH-CRD [1], the IC50 worked out at 55 nM and the dissociation constant (Kd) came to 15 ± 2.6 nM. On FimH-CRD [2], this compound had a dissociation constant Kd of 20.7 ± 16.8 nM.

On to `CC(C)C(=O)Nc1ccc(Oc2cccc([C@H]3O[C@H](CO)[C@@H](O)[C@H](O[C@H]4O[C@H](CO)[C@@H](O)[C@H](O)[C@@H]4O)[C@@H]3O)c2)cc1` [Compound 273, N-[4-[3-[(2R,3R,4R,5R,6R)-3,5-Dihydroxy-6-(hydroxymethyl)-4-[(2R,3S,4S,5S,6R)-3,4,5-trihydroxy-6-(hydroxymethyl)tetrahydropyran-2-yl]oxy-tetrahydropyran-2-yl]phenoxy]phenyl]-2-methyl-propanamide], for which, at FimH-CRD [1], the IC50 is 38 nM and binding was characterised by a dissociation constant (Kd) of 12.1 ± 5.7 nM. For the same compound, the affinity at FimH-CRD [2], expressed as Kd, was 21.8 ± 5.2 nM.

`OC[C@H]1O[C@H](c2cccc(-c3cc(Cl)cc(Cl)c3)c2)[C@@H](O)[C@@H](O)[C@@H]1O` [Compound 79, (2R,3S,4R,5S,6R)-2-[3-(3,5-Dichlorophenyl)phenyl]-6-(hydroxymethyl)tetrahydropyran-3,4,5-triol]: the figures for the Kd on FimH-CRD [1] and at FimH-CRD [2] were below 5 nM and 12.8 ± 0.9 nM, respectively.

At FimH-CRD [1], `CNC(=O)c1cccc([C@H]2O[C@H](CO)[C@@H](O)[C@H](O)[C@@H]2O)c1` [Compound 35, N-methyl-3-((2R,3S,4R,5S,6R)-3,4,5-trihydroxy-6-(hydroxymethyl)tetrahydro-2H-pyran-2-yl)benzamide] had a 50% inhibitory concentration (IC50) of 172 nM and a dissociation constant Kd of 56.2 ± 4.9 nM. Moreover, at FimH-CRD [2], the Kd was 113 nM.

With `CNC(=O)c1cc(C(=O)NC)cc(-c2ccccc2[C@H]2O[C@H](CO)[C@@H](O)[C@H](O)[C@@H]2O)c1` [Compound 40, N^3,N^5-dimethyl-2′-((2R,3S,4R,5S,6R)-3,4,5-trihydroxy-6-(hydroxymethyl)tetrahydro-2H-pyran-2-yl)-[1,1′-biphenyl]-3,5-dicarboxamide], the IC50 on FimH-CRD [1] was determined as 2050 nM. For the same compound, the values for the Kd at FimH-CRD [1] and at FimH-CRD [2] were 474 ± 49.5 nM and 447 ± 490 nM, respectively.

With `Cc1nnc(-c2cccc(-c3ccc([C@H]4O[C@H](CO)[C@@H](O)[C@H](O)[C@@H]4O)cc3)c2)o1` [Compound 130, (2R,3S,4R,5S,6R)-2-(hydroxymethyl)-6-[4-[3-(5-methyl-1,3,4-oxadiazol-2-yl)phenyl]phenyl]tetrahydropyran-3,4,5-triol], the Kd on FimH-CRD [1] was below 5 nM; on FimH-CRD [2], 46.2 nM.

At FimH-CRD [1], `COC(=O)c1ccc(Oc2ccc([C@H]3O[C@H](CO)[C@@H](O)[C@H](O)[C@@H]3O)cc2)cc1` [Compound 54, methyl 4-(4-((2R,3S,4R,5S,6R)-3,4,5-trihydroxy-6-(hydroxymethyl)tetrahydro-2H-pyran-2-yl)phenoxy)benzoate] showed an IC50 of 16 nM and a Kd below 5 nM. For the same compound, binding on FimH-CRD [2] was characterised by a dissociation constant (Kd) of 13.2 ± 9.2 nM.

Take `CCCCNC(=O)c1cccc([C@H]2O[C@H](CO)[C@@H](O)[C@H](O)[C@@H]2O)c1` [Compound 38, N-butyl-3-((2R,3S,4R,5S,6R)-3,4,5-trihydroxy-6-(hydroxymethyl)tetrahydro-2H-pyran-2-yl)benzamide]: the Kd on FimH-CRD [1] worked out at 50.4 ± 3.6 nM; on FimH-CRD [2] it was 72.4 ± 34.8 nM.

On to `CC(C)CCOc1ccc(C2O[C@H](CO)[C@@H](O)[C@H](O)[C@@H]2O)cc1` (stereo partly shown) [Compound 232], for which the affinity at FimH-CRD [2], expressed as Kd, was 8.5 ± 4.2 nM.

`OC[C@H]1OC(c2ccc(OCc3ccc(F)cc3)cc2)[C@@H](O)[C@@H](O)[C@@H]1O` (stereo partly shown) [Compound 237] displayed a Kd at FimH-CRD [2] of 7.9 ± 1.6 nM.

At FimH-CRD [2], `N#CCCCOc1ccc(C2O[C@H](CO)[C@@H](O)[C@H](O)[C@@H]2O)cc1` (stereo partly shown) [Compound 230] registered a Kd of 13.9 ± 3.6 nM.
